Laboratory results reported in patent publication US10640802B2 (priority 2012, dated 2020).

Test system: Acidithiobacillus ferrooxidans AfArsR variant C102S (biosensor co-cultured with Burkholderia sp. MR1)
Type: cell-based

With `O=[N+]([O-])c1cc([As](=O)(O)O)ccc1O` [Rox(V), 4-hydroxy-3-nitrobenzenearsonic acid] the “response of co-cultured biosensor” value was “it didn't”.
`O=[As](O)(O)c1ccccc1` [PAA, phenylarsonic acid] was tested, and the “response of co-cultured biosensor” value was “it didn't”.
